Read-outs that look alike come from different tables or passages of the source.
What was measured:
[1] = cited from earlier work
[2] = test system: rabbit left ventricular wedge preparations and single rabbit ventricular myocytes
Purkinje fiber = conditions: cited from earlier work
[3] = experimental data; cited from earlier work
[4] = test system: rabbit left ventricular wedge preparations; assay: Rabbit left ventricular wedge preparation: endocardial APD90, EAD and TdP
Procedure: Female rabbits weighting 2.5-3 kg were anticoagulated with heparin and anesthetized with pentobarbital (30-35 mg/kg, i.v.). The chest was opened via a left thoracotomy, and the heart was excised and placed in a cardioplegic solution consisting of cold (4° C.) normal Tyrode's solution. Transmural wedges with dimensions of approximately 1.5 cm wide and 2-3 cm long were dissected from the left ventricle. The wedge tissue was cannulated via the circumflex or left main artery and perfused with cardioplegic solution. The preparation was then placed in a small tissue bath and arterially perfused with Tyrode's solution containing 4 mM K^+ buffered with 95% O2 and 5% CO2 (T: 35.7±0.1° C., perfusion pressure: 35-45 mmHg). The ventricular wedge was allowed to equilibrate in the tissue bath until electrically stable, approximately one hour. The preparations were stimulated at basic cycle lengths (BCL) of 1000 and 2000 ms using bipolar silver electrodes insulated except at the tips and applied to the endocardial surface.
A transmural ECG signal was recorded in all experiments using extracellular silver/silver chloride electrodes placed in the Tyrode's solution bathing the preparation. Electrodes were placed 1.0 to 1.5 cm from the epicardial and endocardial surfaces, along the same vector as the transmembrane recordings (Epi: “+” pole). The QT interval was defined as the time from the onset of the QRS to the point at which the final downslope of the T wave crosses the isoelectric line. Transmembrane action potentials were recorded simultaneously from epicardial and endocardial sites of the rabbit left ventricular wedge preparations. The action potential duration was measured at 90% repolarization (APD90).

[5] = test system: L-type calcium channel current (ICa,L); assay: Ratio of ICa,L recovery time constant (whole-cell voltage clamp, double-pulse protocol) to endocardial APD90; type: cell-based; conditions: 30 μM; control ratio 0.448; rabbit
Procedure: Single rabbit ventricular myocytes were isolated using the enzymatic digestion method as described in Rials et al., Circulation 1997; 96:1330-1336. The rabbit heart was initially perfused with 500 ml Ca^2+-free solution (in mM: NaCl 125, KCl 3.5, KH2PO4 1.5, MgCl2 1, NaHCO3 20, glucose 10) gassed with 95% O2-5% CO2 at 37° C. at a rate of 30 ml/min with a peristaltic pump. The heart was then perfused with 80 ml enzyme solution (48 mg collagenase (type II), 12 mg hyaluronidase, 80 mg BSA, and 300 mg taurine to the Ca^2+-free solution). The enzyme solution passed through the heart a single time before 40 ml, and recirculation after 40 ml. […]
ICa,L was recorded in rabbit single ventricular myocytes at 35.7±0.1° C. using the whole-cell voltage-clamp technique as described by Linz and Meyer, Pflugers Arch. […]
The action potentials were first recorded from the endocardium of the rabbit left ventricular wedge preparation at a basic cycle length of 2000 ms before and after exposure to a test compound. […]
The ratio of ICa,L recovery time constant to endocardial APD90 under control and after exposure to one of the test compounds described above was determined as follows: the ratio equals τ(ms)/APD90 (ms). The relative TdP risk score was then calculated based on the change in the QT interval and the ratio according to the criteria listed in Table 1. […]

Maximal TdP Score ([2]; 20 min)	maximal TdP score in the testing concentration range ([2]; 20 min)	Structure (SMILES)	further results
1.3 ± 0.2	1.25±0.22	CN(C)CCCC1(c2ccc(F)cc2)OCc2cc(C#N)ccc21 (stereo not shown) [citalopram]	
1.3 ± 0.2	1.25±0.22	O=C(NCC1CCCCN1)c1cc(OCC(F)(F)F)ccc1OCC(F)(F)F (stereo not shown) [flecainide]	
4.2 ± 0.6	4.20±0.58	O=C(CCCN1CCC(O)(c2ccc(Cl)cc2)CC1)c1ccc(F)cc1 [haloperidol]	
4.0 ± 0.0	4.00±0.00	COc1c(N2C[C@@H]3CCCN[C@@H]3C2)c(F)cc2c(=O)c(C(=O)O)cn(C3CC3)c12 [moxifloxacin]	
11.8 ± 0.2	11.75±0.22	C=C[C@H]1C[N@@]2CC[C@H]1C[C@@H]2[C@@H](O)c1ccnc2ccc(OC)cc12 [quinidine]	

Second part, the compound before the results:

Structure (SMILES)	Maximal TdP Score ([2]; 20 min)	maximal TdP score in the testing concentration range ([2]; 20 min)	further results
CCCCc1oc2ccccc2c1C(=O)c1cc(I)c(OCCN(CC)CC)c(I)c1 [amiodarone]			TdP risk in humans [1]: rarely causes TdP
CC(C)COCC(CN(Cc1ccccc1)c1ccccc1)N1CCCC1 (stereo not shown) [bepridil]	7.5 ± 0.3	7.50±0.26	TdP risk in humans [1]: known to cause TdP in humans; increase in the action potential duration of the Purkinje fiber (Purkinje fiber): have not been shown to produce a significant increase; increase in the QT interval [3]: fails to produce a significant increase
CN(CCOc1ccc(NS(C)(=O)=O)cc1)CCc1ccc(NS(C)(=O)=O)cc1 [dofetilide]			increase in rabbit endocardial APD90 ([4]; dofetilide 0.003 μM vs control, n=8): 76%; development of EAD (preparations) ([4]; dofetilide 0.003 μM, rabbit left ventricular wedge preparations): seven of eight; TdP (rabbits) ([4]; dofetilide 0.01 μM): all of eight; rabbit endocardial APD90 ([4]; female, rabbit, 0.003 μM): 443 ± 27 ms
CNCCC(Oc1ccc(C(F)(F)F)cc1)c1ccccc1 (stereo not shown) [fluxetine]			maximal TdP score in the testing concentration range ([2]; Table 1 criteria, means ±SEM, text and FIG. 7 legend): 0.00±0.00; Maximal TdP Score ([2]; Table 2, Table 1 criteria, means ±SEM): 0.0 ± 0.0
CC(C)NCC(O)c1ccc(NS(C)(=O)=O)cc1 (stereo not shown) [sotalol]	10.0 ± 0.0	10.00±0.00	ratio of ICa,L recovery time constant (τ) to endocardial APD90 [5]: 0.325
